PubChem BioAssay (NCI)
Where “and” joins values, the source holds several entries; their conditions need not be identical. Identical values can stand only once.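 Step 1: Grow cells in 96-well plates. Step 2: Expose to compound for 48 hours at 5 concentrations. Step 3: Interpolate endpoints linearly; if unreached, use highest concentration. GI50: concentration for 50% inhibition of growth. TGI is the concentration that stops growth completely.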

Assays:
Assay in all cases: NCI tumour cell line growth inhibition, 48 h; in the data active = GI50 below about 0.43 µM; inactive = the rest
U251 CNS = system: U251 CNS
SN12C renal = system: SN12C renal
RXF 393 renal = system: RXF 393 renal
SF-539 CNS = system: SF-539 CNS
NCI-H522 lung = system: NCI-H522 lung
A549 NSCLC = system: A549 NSCLC
PC-3 prostate = system: PC-3 prostate
XF 498 CNS = system: XF 498 CNS
SF-295 CNS = system: SF-295 CNS
NCI-H226 lung = system: NCI-H226 lung
T-47D breast = system: T-47D breast
NCI-H23 lung = system: NCI-H23 lung
HL-60(TB) leukemia = system: HL-60(TB) leukemia
786-0 renal = system: 786-0 renal
A498 renal = system: A498 renal
OVCAR-4 ovarian = system: OVCAR-4 ovarian

O=CC(NC(=O)N(CCCl)N=O)C(O)C(O)C(O)CO (stereo not drawn)
inactive: GI50 (U251 CNS) 69.2 µM and 105 µM | GI50 (SN12C renal) 206 µM and > 1250 µM | GI50 (RXF 393 renal) 417 µM | GI50 (SF-539 CNS) 40 µM and 255 µM | GI50 (NCI-H522 lung) > 625 µM | GI50 (A549 NSCLC) 162 µM and 584 µM | GI50 (SF-295 CNS) 31.5 µM | GI50 (NCI-H226 lung) 73.1 µM | GI50 (NCI-H23 lung) 233 µM and > 1250 µM | GI50 (HL-60(TB) leukemia) 144 µM and 420 µM | GI50 (A498 renal) > 1250 µM | GI50 (OVCAR-4 ovarian) > 625 µM
625 µM and 764 µM: TGI (SF-295 CNS)
625 µM and > 1250 µM: TGI (U251 CNS) | TGI (SN12C renal) | TGI (RXF 393 renal) | TGI (A549 NSCLC) | TGI (NCI-H226 lung) | TGI (NCI-H23 lung)
415 µM and > 1250 µM: TGI (XF 498 CNS)
483 µM and > 1250 µM and 614 µM: TGI (SF-539 CNS)
593 µM: TGI (786-0 renal)
> 1250 µM: TGI (NCI-H522 lung) | TGI (PC-3 prostate) | TGI (T-47D breast) | TGI (A498 renal) | TGI (OVCAR-4 ovarian)
625 µM and > 1250 µM and 1070 µM: TGI (HL-60(TB) leukemia)
